22 compounds from BigSolDB 2.1 can be followed below.

Values joined by “and” are separate entries in the source; they are usually repeats but may differ in a detail not shown here. Equal values may be shown once.

In the case of `C[N+](C)(C)CCOP(=O)([O-])OP(=O)([O-])OC[C@H]1O[C@@H](n2ccc(N)nc2=O)[C@H](O)[C@@H]1O.[Na+]`, the solubility (mole fraction) (as a rule, solubility expressed as the solute's share of all molecules) runs as follows: (in water, 278.15 K) 0.0211; (in water, 281.15 K) 0.0216; (in water, 285.15 K) 0.0224; (in water, 289.15 K) 0.0234; (in water, 293.15 K) 0.0248; (in water, 298.15 K) 0.0265.
Consider `COc1ccc2c(c1)c(CC(=O)O)c(C)n2C(=O)c1ccc(Cl)cc1`, for which the solubility (mole fraction) by setting is: (in acetone, 293 K) 0.0183; (in acetone, 298 K) 0.0208; (in acetone, 303 K) 0.0236; (in acetone, 308 K) 0.0273; (in acetone, 313 K) 0.0316; (in acetone, 318 K) 0.0365.
Turning to `c1ccc(-c2cnc(-c3ccccc3)o2)cc1`, the solubility (mole fraction) reads like this: (in acetone, 298.15 K) 0.29; (in ethanol, 298.15 K) 0.04; (in water, 298.15 K) 1.41e-07.
As to `O=C(O)c1ccc(-n2nc(-c3ccccc3O)nc2-c2ccccc2O)cc1`, the solubility (mole fraction) (in acetonitrile, 298.2 K) is 0.00106; the solubility (mole fraction) (in ethanol, 298.2 K) was determined as 0.0143; the solubility (mole fraction) (in methanol, 298.2 K) came to 0.0119; the solubility (mole fraction) (in propylene glycol, 298.2 K) stood at 0.0195.
As to `NC(CO)(CO)CO`, the solubility (mole fraction) by setting is: (in methanol, 293.2 K) 0.0076; (in methanol, 298.2 K) 0.0092; (in methanol, 303.2 K) 0.0106; (in methanol, 308.2 K) 0.0124; (in methanol, 313.2 K) 0.0158.
On to `Clc1ccc(-c2c3nc(c(-c4ccc(Cl)cc4)c4ccc([nH]4)c(-c4ccc(Cl)cc4)c4nc(c(-c5ccc(Cl)cc5)c5ccc2[nH]5)C=C4)C=C3)cc1`, for which the solubility (mole fraction) (in ethanol, 293.2 K) stood at 1.27e-06; the solubility (mole fraction) (in ethanol, 303.2 K) is 1.63e-06; the solubility (mole fraction) (in ethanol, 313.2 K) was found to be 1.93e-06; the solubility (mole fraction) (in ethanol, 323.2 K) worked out at 2.25e-06; the solubility (mole fraction) (in ethanol, 333.2 K) came out at 2.63e-06.
`NCCS(=O)(=O)O`: the solubility (mole fraction) reads like this: (in water, 298.15 K) 0.0143; (in water, 303.15 K) 0.0168; (in water, 308.15 K) 0.0199; (in water, 313.15 K) 0.0231; (in water, 318.15 K) 0.0269.
For `COc1cc(/C=C/C(=O)CC(=O)/C=C/c2ccc(O)c(OC)c2)ccc1O`, in that order: 1.5e-07, 1.7e-07, 1.9e-07, 2e-07 and 2.2e-07.
In turn, `F[P-](F)(F)(F)(F)F.F[P-](F)(F)(F)(F)F.c1cc[n+](CCCCCC[n+]2ccccc2)cc1` gave a solubility (mole fraction) (in acetone, 288.15 K) of 0.00399; a solubility (mole fraction) (in acetone, 293.15 K) of 0.00402; a solubility (mole fraction) (in acetone, 298.15 K) of 0.00409; a solubility (mole fraction) (in acetone, 303.15 K) of 0.00431; a solubility (mole fraction) (in water, 288.25 K) of 2.7e-05; a solubility (mole fraction) (in water, 294.85 K) of 4.2e-05. In addition, the solubility (mole fraction) runs as follows: (in water, 299.15 K) 5.4e-05; (in water, 303.55 K) 7e-05; (in water, 308.25 K) 9e-05.
Consider `CC(=O)OCC(=O)[C@@]12N=C(C)O[C@@H]1C[C@H]1[C@@H]3CCC4=CC(=O)C=C[C@]4(C)[C@H]3[C@@H](O)C[C@@]12C`, for which the solubility (mole fraction) is, setting by setting: (in acetone, 303.15 K) 0.00721; (in ethanol, 303.15 K) 0.0024; (in ethyl acetate, 303.15 K) 0.00399; (in isopropanol, 303.15 K) 0.00204.
As to `O=C1Nc2ccc(Cl)cc2C(c2ccccc2Cl)=NC1O` (stereo not given), the solubility (mole fraction) is 0.0958 (in PEG-200, 303.2 K) and 3e-06 (in water, 303.2 K).
As to `Nc1cc(Cl)nnc1Cl`, the solubility (mole fraction) is, setting by setting: (in ethanol, 303.15 K) 0.0171; (in ethanol, 305.65 K) 0.0179; (in ethanol, 308.15 K) 0.0185; (in ethanol, 310.65 K) 0.0192; (in ethanol, 313.15 K) 0.0202; (in ethanol, 315.65 K) 0.0212. Moreover, the solubility (mole fraction) runs as follows: (in ethanol, 318.15 K) 0.022; (in ethanol, 320.65 K) 0.023; (in ethanol, 323.15 K) 0.024.
For the compound `C/C=C/C=C/C(=O)O`, the solubility (mole fraction) is, setting by setting: (in n-propanol, 283.15 K) 0.0201; (in n-propanol, 288.15 K) 0.0283; (in n-propanol, 293.15 K) 0.0389; (in n-propanol, 298.15 K) 0.0519; (in n-propanol, 303.15 K) 0.0677; (in n-propanol, 308.15 K) 0.0851. In addition, the solubility (mole fraction) runs as follows: (in n-propanol, 313.15 K) 0.0938; (in n-propanol, 318.15 K) 0.129; (in n-propanol, 323.15 K) 0.151.
Consider `O=C1Nc2ccccc2C1=O`, for which the solubility (mole fraction) worked out at 0.0985 (in PEG-400, 298.15 K); 0.109 (in PEG-400, 308.15 K); 0.121 (in PEG-400, 318.15 K); 0.132 (in PEG-400, 328.15 K); 0.145 (in PEG-400, 338.15 K); 0.52 (in transcutol, 298.15 K). For the same compound, the solubility (mole fraction) worked out at 0.536 (in transcutol, 308.15 K); 0.557 (in transcutol, 318.15 K); 0.579 (in transcutol, 328.15 K); 0.594 (in transcutol, 338.15 K).
With `Cc1ccc(-c2cc(C(F)(F)F)nn2-c2ccc(S(N)(=O)=O)cc2)cc1`, the solubility (mole fraction) came out at 7.36e-08 (in water, 293.2 K); 8.02e-08 (in water, 298.2 K); 9.16e-08 (in water, 303.2 K); 1.27e-07 (in water, 308.2 K); 1.44e-07 (in water, 313.2 K).
For `CC(=O)Nc1ccc(O)cc1`, the solubility (mole fraction) (in water, 293.15 K) was 0.00155 and 0.00159 and 0.00152; the solubility (mole fraction) (in water, 310.15 K) turned out to be 0.00272; the solubility (mole fraction) (in water, 318.15 K) was 0.0036.
Regarding `c1ccc2c(c1)[nH]c1ccccc12`, the solubility (mole fraction) by setting is: (in 1-chlorooctane, 298.15 K) 0.00242; (in 1-chlorotetradecane, 298.15 K) 0.0024; (in chlorocyclohexane, 298.15 K) 0.00291; (in dibutyl ether, 298.15 K) 0.00501.
On to `N[C@@H](Cc1cnc[nH]1)C(=O)O`, for which the solubility (mole fraction) (in water, 283.15 K) came out at 0.0035; the solubility (mole fraction) (in water, 288.15 K) came out at 0.00384; the solubility (mole fraction) (in water, 293.15 K) came out at 0.00417; the solubility (mole fraction) (in water, 298.15 K) was determined as 0.00459; the solubility (mole fraction) (in water, 303.15 K) amounted to 0.0051; the solubility (mole fraction) (in water, 308.15 K) was found to be 0.00562. The solubility (mole fraction) (in water, 313.15 K) is 0.00613 and the solubility (mole fraction) (in water, 318.15 K) worked out at 0.00667.
As to `CCCCC`, the solubility (mole fraction) (in water, 286.65 K) is 1.1e-05 and the solubility (mole fraction) (in water, 295.45 K) was determined as 1.03e-05.
`C=C1CC[C@H](O)C/C1=C/C=C1\CCC[C@]2(C)[C@@H]([C@H](C)CCCC(C)C)CC[C@@H]12`: the solubility (mole fraction) runs as follows: (in water, 273.2 K) 1.97e-07; (in water, 278.2 K) 2.95e-07; (in water, 283.2 K) 4.38e-07; (in water, 288.2 K) 5.71e-07; (in water, 298.2 K) 1.06e-06.
Under “in water, 298.15 K”, `O=[N+]([O-])c1ccc(N/N=C/c2ccc[nH]2)c([N+](=O)[O-])c1` had a solubility (mole fraction) of 1.6e-08.
Consider `O=c1[nH]cc(F)c(=O)[nH]1`, for which the solubility (mole fraction) runs as follows: (in THF, 283.15 K) 0.000217; (in THF, 288.15 K) 0.000286; (in THF, 293.15 K) 0.000359; (in THF, 298.15 K) 0.000471; (in THF, 303.15 K) 0.000618; (in THF, 308.15 K) 0.000763. Also, the solubility (mole fraction) came out at 0.000961 (in THF, 313.15 K); 0.0012 (in THF, 318.15 K); 0.00151 (in THF, 323.15 K); 0.00248 (in water, 298.15 K).
